The numbers were not newly measured in patent US12479917B2, “Methods of treating NSCLC comprising administering platinum doublet chemotherapy followed by an anti-PD-1 antibody and an anti-CTLA-4 antibody” (priority 2018, dated 2025), which cites them from elsewhere.

One data set deals with advanced NSCLC. Conditions: second line (2 L).
The conditions of data set [1]: monotherapy, every two weeks; MTD not reached.

For `Nc1nc2[nH]cc(CCc3ccc(C(=O)N[C@@H](CCC(=O)O)C(=O)O)cc3)c2c(=O)[nH]1` [Pemetrexed], in the data set with advanced NSCLC, the “efficacy outcomes compared with docetaxel” value is “clinically equivalent efficacy outcomes” and the “side effects compared with docetaxel” value was “significantly fewer side effects”.

Regarding nivolumab, the “maximum tolerated dose (MTD)” value in data set [1] is on record as above 10 mg/kg.
